In patent US20260201008A1, “SECRETIN-DERIVED GLP1R SELECTIVE AGONISTS” (GUBRA A/S, priority 2023, published 2026):
Numbered stars: 1 amine (or outer) side, 2 acyl side, 3 side chain; on linkers, the order of the positions; unused ones are H or OH. Square brackets hold non-standard residues; d marks the D form. Side chains are listed from the residue outwards. Peptide text beside a SMILES is read from it. * marks the point of attachment. C20 diacid = O=C(O)CCCCCCCCCCCCCCCCCCC(=O)*; γGlu = O=C(O)[C@H](CCC(=O)[*:2])N[*:1]; AEEA = NCCOCCOCC(=O)O; Aib = CC(C)(N)C(=O)O

Assays:
GLP1R = GLP1R (Homo sapiens, UniProt P43220); test: hGLP1R potency, cAMP accumulation in CHO-K1 cells stably overexpressing hGLP1R; format: cell-based; set-up: host or cells: CHO-K1; conditions: for EC50: cAMP accumulation, CHO-K1 cells overexpressing hGLP1R, read-out: hGLP1R pEC50 (converted); for SCTR EC50/GLP1R EC50 ratio: selectivity for hGLP1R over hSCTR, cAMP accumulation in CHO-K1 cells
Sequence of GLP1R (P43220 24-463): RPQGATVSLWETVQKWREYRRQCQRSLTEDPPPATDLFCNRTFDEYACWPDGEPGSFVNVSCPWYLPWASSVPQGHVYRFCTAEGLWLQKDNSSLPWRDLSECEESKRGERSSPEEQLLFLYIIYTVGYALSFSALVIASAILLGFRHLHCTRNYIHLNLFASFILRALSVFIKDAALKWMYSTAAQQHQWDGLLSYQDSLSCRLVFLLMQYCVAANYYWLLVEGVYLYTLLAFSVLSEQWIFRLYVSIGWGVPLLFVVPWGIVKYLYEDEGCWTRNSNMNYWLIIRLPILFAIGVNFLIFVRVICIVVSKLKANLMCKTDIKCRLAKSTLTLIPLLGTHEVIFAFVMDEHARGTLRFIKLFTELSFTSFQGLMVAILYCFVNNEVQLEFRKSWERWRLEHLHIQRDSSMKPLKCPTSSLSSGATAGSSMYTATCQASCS
Outline: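 Thawed cells go straight into buffer containing 0.5 mM IBMX and 0.05% casein, get graded compound doses for 30 min at room temperature, and are then assayed for accumulated cAMP by time-resolved FRET. Human GLP-1(7-36) serves as positive control; EC50 is derived by nonlinear regression.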

[1] = Fibril formation of crude library peptides (Thioflavin T); format: physicochemical; set-up: key: average ThT fluorescence emission at 480 nm (ex 450 nm), raw units; conditions: Physical stability of peptides
Outline: (§1)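 Crude peptides at 267 μM in 50 mM sodium acetate pH 4.0 or 50 mM sodium phosphate pH 7.0, pre-incubated 1-2 h at room temperature, then 4 μM final ThT added. Turbidity read first as A600. ThT fluorescence (ex 450/em 480 nm) read every 10 min for 72 h at 40° C, with 5 min shaking before each read; fibril formation = average emission.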

[2] = Turbidity of crude library peptides (absorbance at 600 nm); format: physicochemical; conditions: Physical stability of peptides
Outline: as §1

SCTR = SCTR (Homo sapiens, UniProt P47872); test: hSCTR potency, cAMP accumulation in CHO-K1 cells stably overexpressing hSCTR; format: cell-based; set-up: alternatively Euroscreen ES-712-AF; FAST-0161L; host or cells: CHO-K1; conditions: cAMP accumulation, CHO-K1 cells overexpressing hSCTR; read-out: hSCTR pEC50 (converted)
Sequence of SCTR (P47872 23-440): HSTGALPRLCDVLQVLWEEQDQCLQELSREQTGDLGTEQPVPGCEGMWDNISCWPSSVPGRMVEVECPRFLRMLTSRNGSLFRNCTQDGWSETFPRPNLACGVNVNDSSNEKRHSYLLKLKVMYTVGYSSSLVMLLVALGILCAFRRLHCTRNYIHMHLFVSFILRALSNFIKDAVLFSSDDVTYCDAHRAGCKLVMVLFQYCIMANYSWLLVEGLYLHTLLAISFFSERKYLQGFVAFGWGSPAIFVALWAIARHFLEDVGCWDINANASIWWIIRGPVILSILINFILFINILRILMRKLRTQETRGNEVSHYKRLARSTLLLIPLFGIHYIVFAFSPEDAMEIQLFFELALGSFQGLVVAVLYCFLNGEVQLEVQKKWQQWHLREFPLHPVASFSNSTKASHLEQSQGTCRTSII
Outline: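 Read-out is TR-FRET cAMP detection, recorded one hour after reagent addition, in CHO-K1 cells stably overexpressing hSCTR. Cells in DPBS containing 0.05% casein and 0.5 mM IBMX are exposed to graded peptide doses for 30 min at room temperature, with human secretin as reference agonist.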

| EC50 (GLP1R) [nM] | SCTR EC50/GLP1R EC50 ratio (GLP1R) | Fibril formation [1] | Turbidity (pH 7) [2] | EC50 (SCTR) [nM] | Structure (SMILES) |
| --- | --- | --- | --- | --- | --- |
| 0.00501 | 22241 | 4491 | 0.09 | 126 | CC(C)C[C@H](NC(=O)[C@H](Cc1c[nH]c2ccccc12)NC(=O)[C@H](CCCNC(=N)N)NC(=O)[C@H](CCC(N)=O)NC(=O)[C@H](CC(C)C)NC(=O)C(C)(C)NC(=O)[C@H](C)NC(=O)[C@H](CCC(=O)O)NC(=O)[C@H](CCC(=O)O)NC(=O)[C@H](CCCCNC(=O)COCCOCCNC(=O)COCCOCCNC(=O)CC[C@H](NC(=O)CCCCCCCCCCCCCCCCCCC(=O)O)C(=O)O)NC(=O)[C@H](CC(C)C)NC(=O)[C@H](Cc1ccc(O)cc1)NC(=O)[C@H](CO)NC(=O)[C@@H](NC(=O)[C@H](CC(=O)O)NC(=O)[C@H](CO)NC(=O)[C@@H](NC(=O)[C@H](Cc1ccccc1)NC(=O)[C@@H](NC(=O)CNC(=O)[C@H](CCC(=O)O)NC(=O)C(C)(C)NC(=O)[C@@H](N)Cc1c[nH]cn1)[C@@H](C)O)[C@@H](C)O)C(C)C)C(=O)N[C@@H](CCC(=O)O)C(=O)N[C@@H](Cc1c[nH]cn1)C(=O)N[C@@H](CC(C)C)C(=O)N[C@H](C(N)=O)C(C)C [compound 135] (H-H[Aib]EGTFTSDVSYLK([AEEA-AEEA-γGlu-C20 diacid])EEA[Aib]LQRWLEHLV-NH2) |
| 0.00794 | 9970 | 4019 | 0.09 | 79.4 | CC(C)C[C@H](NC(=O)[C@H](C)NC(=O)[C@H](C)NC(=O)[C@H](CCC(=O)O)NC(=O)[C@H](CCC(=O)O)NC(=O)[C@H](CCCCNC(=O)COCCOCCNC(=O)COCCOCCNC(=O)CC[C@H](NC(=O)CCCCCCCCCCCCCCCCCCC(=O)O)C(=O)O)NC(=O)[C@H](CC(C)C)NC(=O)[C@H](Cc1ccc(O)cc1)NC(=O)[C@H](CO)NC(=O)[C@@H](NC(=O)[C@H](CC(=O)O)NC(=O)[C@H](CO)NC(=O)[C@@H](NC(=O)[C@H](Cc1ccccc1)NC(=O)[C@@H](NC(=O)CNC(=O)[C@H](CCC(=O)O)NC(=O)C(C)(C)NC(=O)[C@@H](N)Cc1c[nH]cn1)[C@@H](C)O)[C@@H](C)O)C(C)C)C(=O)N[C@@H](CCC(N)=O)C(=O)N[C@@H](CCCNC(=N)N)C(=O)N[C@@H](Cc1ccccc1)C(=O)N[C@@H](CC(C)C)C(=O)N[C@@H](CCC(=O)O)C(=O)N[C@@H](Cc1c[nH]cn1)C(=O)N[C@@H](CC(C)C)C(=O)N[C@H](C(N)=O)C(C)C [compound 137] (H-H[Aib]EGTFTSDVSYLK([AEEA-AEEA-γGlu-C20 diacid])EEAALQRFLEHLV-NH2) |
| 0.0126 | 2569 | 3306 | 0.09 | 31.6 | CC(C)C[C@H](NC(=O)[C@H](Cc1ccccc1)NC(=O)[C@H](CCCNC(=N)N)NC(=O)[C@H](CCC(N)=O)NC(=O)[C@H](CC(C)C)NC(=O)C(C)(C)NC(=O)[C@H](C)NC(=O)[C@H](CCC(=O)O)NC(=O)[C@H](CCC(=O)O)NC(=O)[C@H](CCCCNC(=O)COCCOCCNC(=O)COCCOCCNC(=O)CC[C@H](NC(=O)CCCCCCCCCCCCCCCCCCC(=O)O)C(=O)O)NC(=O)[C@H](CC(C)C)NC(=O)[C@@H](NC(=O)[C@H](CO)NC(=O)[C@@H](NC(=O)[C@H](CC(=O)O)NC(=O)[C@H](CO)NC(=O)[C@@H](NC(=O)[C@H](Cc1ccccc1)NC(=O)[C@@H](NC(=O)CNC(=O)[C@H](CCC(=O)O)NC(=O)C(C)(C)NC(=O)[C@@H](N)Cc1c[nH]cn1)[C@@H](C)O)[C@@H](C)O)C(C)C)C(C)C)C(=O)N[C@@H](CCC(=O)O)C(=O)N[C@@H](Cc1c[nH]cn1)C(=O)N[C@@H](CC(C)C)C(=O)N[C@H](C(N)=O)C(C)C [compound 138] (H-H[Aib]EGTFTSDVSVLK([AEEA-AEEA-γGlu-C20 diacid])EEA[Aib]LQRFLEHLV-NH2) |

The remaining lines, values behind:

| Structure (SMILES) | EC50 (GLP1R) [nM] | SCTR EC50/GLP1R EC50 ratio (GLP1R) | Fibril formation [1] | Turbidity (pH 7) [2] | EC50 (SCTR) [nM] |
| --- | --- | --- | --- | --- | --- |
| CC(C)C[C@H](NC(=O)[C@H](Cc1ccccc1)NC(=O)[C@H](CCCNC(=N)N)NC(=O)[C@H](CCC(N)=O)NC(=O)[C@H](CC(C)C)NC(=O)C(C)(C)NC(=O)[C@H](C)NC(=O)[C@H](CCC(=O)O)NC(=O)[C@H](CCC(=O)O)NC(=O)[C@H](CCCCNC(=O)COCCOCCNC(=O)COCCOCCNC(=O)CC[C@H](NC(=O)CCCCCCCCCCCCCCCCCCC(=O)O)C(=O)O)NC(=O)[C@H](CC(C)C)NC(=O)[C@H](CC(N)=O)NC(=O)[C@H](CO)NC(=O)[C@@H](NC(=O)[C@H](CC(=O)O)NC(=O)[C@H](CO)NC(=O)[C@@H](NC(=O)[C@H](Cc1ccccc1)NC(=O)[C@@H](NC(=O)CNC(=O)[C@H](CCC(=O)O)NC(=O)C(C)(C)NC(=O)[C@@H](N)Cc1c[nH]cn1)[C@@H](C)O)[C@@H](C)O)C(C)C)C(=O)N[C@@H](CCC(=O)O)C(=O)N[C@@H](Cc1c[nH]cn1)C(=O)N[C@@H](CC(C)C)C(=O)N[C@H](C(N)=O)C(C)C [compound 136] (H-H[Aib]EGTFTSDVSNLK([AEEA-AEEA-γGlu-C20 diacid])EEA[Aib]LQRFLEHLV-NH2) | 0.0126 | 857 | 3353 | 0.08 | 12.6 |
| CC[C@H](C)[C@H](NC(=O)C(C)(C)NC(=O)[C@H](C)NC(=O)[C@H](CCC(=O)O)NC(=O)[C@H](CCC(=O)O)NC(=O)[C@H](CCCCNC(=O)COCCOCCNC(=O)COCCOCCNC(=O)CC[C@H](NC(=O)CCCCCCCCCCCCCCCCCCC(=O)O)C(=O)O)NC(=O)[C@H](CC(C)C)NC(=O)[C@H](Cc1ccc(O)cc1)NC(=O)[C@H](CO)NC(=O)[C@@H](NC(=O)[C@H](CC(=O)O)NC(=O)[C@H](CO)NC(=O)[C@@H](NC(=O)[C@H](Cc1ccccc1)NC(=O)[C@@H](NC(=O)CNC(=O)[C@H](CCC(=O)O)NC(=O)C(C)(C)NC(=O)[C@@H](N)Cc1c[nH]cn1)[C@@H](C)O)[C@@H](C)O)C(C)C)C(=O)N[C@@H](CCC(N)=O)C(=O)N[C@@H](CCCNC(=N)N)C(=O)N[C@@H](Cc1ccccc1)C(=O)N[C@@H](CC(C)C)C(=O)N[C@@H](CCC(=O)O)C(=O)N[C@@H](Cc1c[nH]cn1)C(=O)N[C@@H](CC(C)C)C(=O)N[C@H](C(N)=O)C(C)C [compound 139] (H-H[Aib]EGTFTSDVSYLK([AEEA-AEEA-γGlu-C20 diacid])EEA[Aib]IQRFLEHLV-NH2) | 0.00631 | 21979 | 4010 | 0.09 | 126 |
| CC(C)C[C@H](NC(=O)[C@H](Cc1ccccc1)NC(=O)[C@H](CCCNC(=N)N)NC(=O)[C@H](CCC(N)=O)NC(=O)[C@H](CC(C)C)NC(=O)C(C)(C)NC(=O)[C@H](C)NC(=O)[C@H](CCC(=O)O)NC(=O)[C@H](CCC(=O)O)NC(=O)[C@H](CCCCNC(=O)COCCOCCNC(=O)COCCOCCNC(=O)CC[C@H](NC(=O)CCCCCCCCCCCCCCCCCCC(=O)O)C(=O)O)NC(=O)[C@H](CC(C)C)NC(=O)[C@@H]1CCCN1C(=O)[C@H](CO)NC(=O)[C@@H](NC(=O)[C@H](CC(=O)O)NC(=O)[C@H](CO)NC(=O)[C@@H](NC(=O)[C@H](Cc1ccccc1)NC(=O)[C@@H](NC(=O)CNC(=O)[C@H](CCC(=O)O)NC(=O)C(C)(C)NC(=O)[C@@H](N)Cc1c[nH]cn1)[C@@H](C)O)[C@@H](C)O)C(C)C)C(=O)N[C@@H](CCC(=O)O)C(=O)N[C@@H](Cc1c[nH]cn1)C(=O)N[C@@H](CC(C)C)C(=O)N[C@H](C(N)=O)C(C)C [compound 140] (H-H[Aib]EGTFTSDVSPLK([AEEA-AEEA-γGlu-C20 diacid])EEA[Aib]LQRFLEHLV-NH2) | 1.26 | 14381 | 2733 | 0.08 | 20000 |
| CC(C)C[C@H](NC(=O)[C@H](Cc1ccc(O)cc1)NC(=O)[C@H](CCCNC(=N)N)NC(=O)[C@H](CCC(N)=O)NC(=O)[C@H](CC(C)C)NC(=O)C(C)(C)NC(=O)[C@H](C)NC(=O)[C@H](CCC(=O)O)NC(=O)[C@H](CCC(=O)O)NC(=O)[C@H](CCCCNC(=O)COCCOCCNC(=O)COCCOCCNC(=O)CC[C@H](NC(=O)CCCCCCCCCCCCCCCCCCC(=O)O)C(=O)O)NC(=O)[C@H](CC(C)C)NC(=O)[C@H](Cc1ccc(O)cc1)NC(=O)[C@H](CO)NC(=O)[C@@H](NC(=O)[C@H](CC(=O)O)NC(=O)[C@H](CO)NC(=O)[C@@H](NC(=O)[C@H](Cc1ccccc1)NC(=O)[C@@H](NC(=O)CNC(=O)[C@H](CCC(=O)O)NC(=O)C(C)(C)NC(=O)[C@@H](N)Cc1c[nH]cn1)[C@@H](C)O)[C@@H](C)O)C(C)C)C(=O)N[C@@H](CCC(=O)O)C(=O)N[C@@H](Cc1c[nH]cn1)C(=O)N[C@@H](CC(C)C)C(=O)N[C@H](C(N)=O)C(C)C [compound 141] (H-H[Aib]EGTFTSDVSYLK([AEEA-AEEA-γGlu-C20 diacid])EEA[Aib]LQRYLEHLV-NH2) | 0.00398 | 59910 | 3233 | 0.08 | 251 |
